Experiments:
Assay in all cases: radiometric filter-binding kinase assay, Kinase HotSpot
Conditions in all cases: compound 0.5 µM; ATP 10 µM
MKNK2 (human) = MKNK2 (human) (UniProt Q9HBH9)
ACVR1 (human) = ACVR1 (human) (UniProt Q04771)
KDR (human) = KDR (human) (UniProt P35968)
STK39 (human) = STK39 (human) (UniProt Q9UEW8)
PAK3 (human) = PAK3 (human) (UniProt O75914)
HIPK1 (human) = HIPK1 (human) (UniProt Q86Z02)
MARK4 (human) = MARK4 (human) (UniProt Q96L34)
CSNK1G2 (human) = CSNK1G2 (human) (UniProt P78368)
FGFR4 (human) = FGFR4 (human) (UniProt P22455)
CDK2 CCNA2 (human) = CDK2 CCNA2 (human) (UniProt P24941+P20248)
BRAF (human) = BRAF (human) (UniProt P15056)
ROCK2 (human) = ROCK2 (human) (UniProt O75116)
AURKC (human) = AURKC (human) (UniProt Q9UQB9)
MYLK2 (human) = MYLK2 (human) (UniProt Q9H1R3)
EPHA3 (human) = EPHA3 (human) (UniProt P29320)
CAMK2G (human) = CAMK2G (human) (UniProt Q13555)
INSRR (human) = INSRR (human) (UniProt P14616)
HIPK3 (human) = HIPK3 (human) (UniProt Q9H422)
CLK4 (human) = CLK4 (human) (UniProt Q9HAZ1)
TEK (human) = TEK (human) (UniProt Q02763)
RPS6KA6 KD1 KD2 (human) = RPS6KA6 KD1 KD2 (human) (UniProt Q9UK32)
MAP3K5 (human) = MAP3K5 (human) (UniProt Q99683)
FES (human) = FES (human) (UniProt P07332)
ULK1 (human) = ULK1 (human) (UniProt O75385)
TNK2 (human) = TNK2 (human) (UniProt Q07912)
MAPK3 (human) = MAPK3 (human) (UniProt P27361)
CDC42BPA (human) = CDC42BPA (human) (UniProt Q5VT25)
CHEK2 (human) = CHEK2 (human) (UniProt O96017)
LRRK2 (human) = LRRK2 (human) (UniProt Q5S007)
HIPK2 (human) = HIPK2 (human) (UniProt Q9H2X6)
TGFBR1 (human) = TGFBR1 (human) (UniProt P36897)
MELK (human) = MELK (human) (UniProt Q14680)
PKN1 (human) = PKN1 (human) (UniProt Q16512)
CDK2 CCNE1 (human) = CDK2 CCNE1 (human) (UniProt P24941+P24864)
DAPK2 (human) = DAPK2 (human) (UniProt Q9UIK4)
INSR (human) = INSR (human) (UniProt P06213)
NEK6 (human) = NEK6 (human) (UniProt Q9HC98)
PDGFRB (human) = PDGFRB (human) (UniProt P09619)
PRKACG (human) = PRKACG (human) (UniProt P22612)
TLK2 (human) = TLK2 (human) (UniProt Q86UE8)
EPHA6 (human) = EPHA6 (human) (UniProt Q9UF33)

Sequence of MYLK2 (human) (Q9H1R3 whole entry, looked up): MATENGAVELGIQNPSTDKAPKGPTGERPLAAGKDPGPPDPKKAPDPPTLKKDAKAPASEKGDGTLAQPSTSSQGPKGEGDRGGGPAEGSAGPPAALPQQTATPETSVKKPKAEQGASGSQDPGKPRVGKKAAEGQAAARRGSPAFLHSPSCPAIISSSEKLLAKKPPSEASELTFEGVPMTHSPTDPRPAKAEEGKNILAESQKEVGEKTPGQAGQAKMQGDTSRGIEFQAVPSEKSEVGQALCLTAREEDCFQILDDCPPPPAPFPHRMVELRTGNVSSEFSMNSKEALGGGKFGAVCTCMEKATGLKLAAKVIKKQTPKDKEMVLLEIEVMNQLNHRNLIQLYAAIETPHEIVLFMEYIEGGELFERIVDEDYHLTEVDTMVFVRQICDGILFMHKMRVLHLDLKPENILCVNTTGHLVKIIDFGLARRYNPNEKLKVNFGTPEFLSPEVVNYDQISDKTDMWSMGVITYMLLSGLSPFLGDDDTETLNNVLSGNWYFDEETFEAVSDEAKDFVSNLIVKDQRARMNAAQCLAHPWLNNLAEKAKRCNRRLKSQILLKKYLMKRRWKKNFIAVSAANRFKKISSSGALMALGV
Sequence of PKN1 (human) (Q16512 whole entry, looked up): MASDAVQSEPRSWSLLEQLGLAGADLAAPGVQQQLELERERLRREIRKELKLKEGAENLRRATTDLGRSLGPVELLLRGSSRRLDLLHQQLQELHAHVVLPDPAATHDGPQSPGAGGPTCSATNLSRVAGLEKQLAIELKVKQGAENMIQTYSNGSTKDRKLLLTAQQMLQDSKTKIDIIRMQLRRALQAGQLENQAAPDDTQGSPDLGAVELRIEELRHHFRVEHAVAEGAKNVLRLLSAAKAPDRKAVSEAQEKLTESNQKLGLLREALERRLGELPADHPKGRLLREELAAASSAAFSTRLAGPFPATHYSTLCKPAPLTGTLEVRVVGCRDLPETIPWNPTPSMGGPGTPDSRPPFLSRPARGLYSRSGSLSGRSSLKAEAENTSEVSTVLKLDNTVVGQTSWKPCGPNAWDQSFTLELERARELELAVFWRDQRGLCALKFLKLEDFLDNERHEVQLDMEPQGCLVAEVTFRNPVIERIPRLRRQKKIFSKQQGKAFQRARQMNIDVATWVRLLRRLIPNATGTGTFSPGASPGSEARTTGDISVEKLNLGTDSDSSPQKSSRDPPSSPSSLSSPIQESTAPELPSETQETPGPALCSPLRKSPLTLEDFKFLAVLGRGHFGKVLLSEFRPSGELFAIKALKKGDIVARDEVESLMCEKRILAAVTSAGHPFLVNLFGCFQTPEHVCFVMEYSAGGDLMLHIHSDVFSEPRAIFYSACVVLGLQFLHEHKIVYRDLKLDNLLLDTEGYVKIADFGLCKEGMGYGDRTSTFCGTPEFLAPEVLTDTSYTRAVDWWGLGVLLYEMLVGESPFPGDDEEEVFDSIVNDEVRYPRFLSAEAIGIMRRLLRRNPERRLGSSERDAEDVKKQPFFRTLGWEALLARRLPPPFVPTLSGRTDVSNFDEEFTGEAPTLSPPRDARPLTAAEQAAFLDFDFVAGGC
Sequence of ULK1 (human) (O75385 whole entry, looked up): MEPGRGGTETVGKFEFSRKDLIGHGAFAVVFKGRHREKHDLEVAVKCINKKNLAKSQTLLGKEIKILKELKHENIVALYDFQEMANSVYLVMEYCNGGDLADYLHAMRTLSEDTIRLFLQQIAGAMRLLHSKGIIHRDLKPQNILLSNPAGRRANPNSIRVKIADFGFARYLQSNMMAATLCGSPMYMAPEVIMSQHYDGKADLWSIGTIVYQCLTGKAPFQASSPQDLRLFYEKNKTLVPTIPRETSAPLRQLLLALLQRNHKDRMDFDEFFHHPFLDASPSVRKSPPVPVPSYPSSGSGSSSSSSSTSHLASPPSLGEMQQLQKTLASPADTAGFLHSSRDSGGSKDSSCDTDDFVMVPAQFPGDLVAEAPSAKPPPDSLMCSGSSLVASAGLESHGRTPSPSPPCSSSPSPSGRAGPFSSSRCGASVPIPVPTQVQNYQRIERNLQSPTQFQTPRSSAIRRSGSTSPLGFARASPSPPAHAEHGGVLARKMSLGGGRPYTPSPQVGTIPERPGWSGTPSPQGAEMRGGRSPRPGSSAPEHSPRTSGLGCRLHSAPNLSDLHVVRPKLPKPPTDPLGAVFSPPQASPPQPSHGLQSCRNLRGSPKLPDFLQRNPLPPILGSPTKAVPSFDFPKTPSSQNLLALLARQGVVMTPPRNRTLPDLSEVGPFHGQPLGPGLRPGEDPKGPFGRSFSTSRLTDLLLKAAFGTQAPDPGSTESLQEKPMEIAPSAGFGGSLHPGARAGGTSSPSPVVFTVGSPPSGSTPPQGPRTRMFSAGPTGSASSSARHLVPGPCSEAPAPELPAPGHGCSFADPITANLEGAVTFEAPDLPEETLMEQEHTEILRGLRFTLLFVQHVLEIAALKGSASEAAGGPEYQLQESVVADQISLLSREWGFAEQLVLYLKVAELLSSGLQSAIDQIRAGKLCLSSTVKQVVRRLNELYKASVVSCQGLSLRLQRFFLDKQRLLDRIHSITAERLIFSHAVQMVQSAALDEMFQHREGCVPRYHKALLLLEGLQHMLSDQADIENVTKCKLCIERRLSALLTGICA
Sequence of HIPK1 (human) (Q86Z02 whole entry, looked up): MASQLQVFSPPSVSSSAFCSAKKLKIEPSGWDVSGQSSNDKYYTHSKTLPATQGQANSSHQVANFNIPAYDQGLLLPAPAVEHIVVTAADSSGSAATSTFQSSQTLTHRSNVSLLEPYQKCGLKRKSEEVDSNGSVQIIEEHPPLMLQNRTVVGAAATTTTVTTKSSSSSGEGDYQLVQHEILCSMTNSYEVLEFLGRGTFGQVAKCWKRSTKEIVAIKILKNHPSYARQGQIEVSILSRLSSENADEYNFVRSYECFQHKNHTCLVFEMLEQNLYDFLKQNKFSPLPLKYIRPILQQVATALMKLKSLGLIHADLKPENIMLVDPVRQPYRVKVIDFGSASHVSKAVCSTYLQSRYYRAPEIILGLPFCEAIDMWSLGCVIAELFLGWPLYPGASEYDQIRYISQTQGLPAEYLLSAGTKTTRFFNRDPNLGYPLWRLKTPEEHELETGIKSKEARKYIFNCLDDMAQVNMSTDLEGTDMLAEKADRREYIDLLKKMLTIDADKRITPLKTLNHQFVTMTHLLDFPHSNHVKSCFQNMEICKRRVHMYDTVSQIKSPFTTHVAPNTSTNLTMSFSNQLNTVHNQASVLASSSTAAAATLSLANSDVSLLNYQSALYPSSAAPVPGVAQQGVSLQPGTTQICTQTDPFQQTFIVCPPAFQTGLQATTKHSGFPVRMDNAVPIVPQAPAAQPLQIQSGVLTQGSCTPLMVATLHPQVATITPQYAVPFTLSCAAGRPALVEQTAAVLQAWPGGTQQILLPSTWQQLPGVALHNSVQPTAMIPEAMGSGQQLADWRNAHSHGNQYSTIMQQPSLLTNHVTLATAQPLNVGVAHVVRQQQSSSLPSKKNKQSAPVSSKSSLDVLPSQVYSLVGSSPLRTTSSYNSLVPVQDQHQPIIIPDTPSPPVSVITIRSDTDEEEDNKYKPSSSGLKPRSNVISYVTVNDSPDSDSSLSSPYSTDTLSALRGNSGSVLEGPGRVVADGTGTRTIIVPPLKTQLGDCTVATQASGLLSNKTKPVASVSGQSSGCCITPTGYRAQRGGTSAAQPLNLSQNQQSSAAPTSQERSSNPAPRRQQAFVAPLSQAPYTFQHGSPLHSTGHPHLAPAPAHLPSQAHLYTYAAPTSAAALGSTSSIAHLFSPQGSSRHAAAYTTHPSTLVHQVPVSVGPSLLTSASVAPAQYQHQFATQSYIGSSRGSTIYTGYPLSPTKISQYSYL
Sequence of FES (human) (P07332 whole entry, looked up): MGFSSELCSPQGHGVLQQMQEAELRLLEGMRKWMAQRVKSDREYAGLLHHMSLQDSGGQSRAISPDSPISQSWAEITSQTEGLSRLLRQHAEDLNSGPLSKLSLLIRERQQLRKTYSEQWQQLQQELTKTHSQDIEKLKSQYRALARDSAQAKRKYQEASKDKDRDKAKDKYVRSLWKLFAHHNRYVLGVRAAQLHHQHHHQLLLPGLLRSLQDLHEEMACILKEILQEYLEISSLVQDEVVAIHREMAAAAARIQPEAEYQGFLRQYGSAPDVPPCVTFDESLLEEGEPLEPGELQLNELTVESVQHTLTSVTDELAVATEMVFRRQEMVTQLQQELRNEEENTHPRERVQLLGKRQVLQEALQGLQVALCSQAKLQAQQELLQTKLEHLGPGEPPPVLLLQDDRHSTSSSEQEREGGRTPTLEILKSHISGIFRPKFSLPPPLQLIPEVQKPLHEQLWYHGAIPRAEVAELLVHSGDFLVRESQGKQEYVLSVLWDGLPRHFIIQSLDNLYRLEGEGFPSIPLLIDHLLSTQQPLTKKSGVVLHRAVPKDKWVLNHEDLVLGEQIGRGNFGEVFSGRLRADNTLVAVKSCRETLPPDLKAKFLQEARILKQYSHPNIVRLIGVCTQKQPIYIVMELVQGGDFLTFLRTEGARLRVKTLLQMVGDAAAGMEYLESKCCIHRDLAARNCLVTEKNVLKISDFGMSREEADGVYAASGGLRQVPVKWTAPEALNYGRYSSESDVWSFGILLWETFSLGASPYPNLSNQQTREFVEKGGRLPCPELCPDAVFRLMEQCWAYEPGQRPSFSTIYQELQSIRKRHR
Sequence of CDK2 CCNE1 (human) (P24864 whole entry, looked up, other chains not shown): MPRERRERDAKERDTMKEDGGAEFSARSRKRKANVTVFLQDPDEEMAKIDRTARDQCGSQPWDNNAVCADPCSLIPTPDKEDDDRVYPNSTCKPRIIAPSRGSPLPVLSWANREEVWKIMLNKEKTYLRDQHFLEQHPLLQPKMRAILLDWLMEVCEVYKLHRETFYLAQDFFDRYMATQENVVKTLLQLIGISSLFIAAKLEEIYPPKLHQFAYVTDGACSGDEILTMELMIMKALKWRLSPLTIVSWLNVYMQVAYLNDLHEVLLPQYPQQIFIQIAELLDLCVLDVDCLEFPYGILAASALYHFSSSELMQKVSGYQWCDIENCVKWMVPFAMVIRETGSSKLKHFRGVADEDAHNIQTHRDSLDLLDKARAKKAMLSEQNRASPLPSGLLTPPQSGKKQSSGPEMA

Compound	residual activity (MKNK2 (human)) [%]	residual activity (ACVR1 (human)) [%]	residual activity (STK39 (human)) [%]	residual activity (HIPK1 (human)) [%]	residual activity (MARK4 (human)) [%]	residual activity (FGFR4 (human)) [%]	residual activity (BRAF (human)) [%]	residual activity (ROCK2 (human)) [%]	residual activity (AURKC (human)) [%]	residual activity (MYLK2 (human)) [%]	residual activity (EPHA3 (human)) [%]	residual activity (CAMK2G (human)) [%]	residual activity (INSRR (human)) [%]	residual activity (HIPK3 (human)) [%]	residual activity (CLK4 (human)) [%]	residual activity (RPS6KA6 KD1 KD2 (human)) [%]	residual activity (ULK1 (human)) [%]	residual activity (TNK2 (human)) [%]	residual activity (CDC42BPA (human)) [%]	residual activity (CHEK2 (human)) [%]	also measured
Cc1ccc(NC2=CC(=O)c3sc(C)nc3C2=O)cc1	89	99.1	93.4	96.7	102	86.7	96.7	85.1	90.7	92.8	96.6	90.4	90	101	99.1	73.4	114	94.3	77.6	100	residual activity (KDR (human)): 101%; residual activity (PAK3 (human)): 97.5%; residual activity (CSNK1G2 (human)): 99.9%; residual activity (CDK2 CCNA2 (human)): 88.1%; residual activity (TEK (human)): 95.9%; residual activity (MAP3K5 (human)): 119%; residual activity (FES (human)): 101%; residual activity (MAPK3 (human)): 100%; residual activity (LRRK2 (human)): 102%; residual activity (HIPK2 (human)): 98.5%; residual activity (TGFBR1 (human)): 94.8%; residual activity (MELK (human)): 93.2%; residual activity (PKN1 (human)): 98.9%; residual activity (CDK2 CCNE1 (human)): 72.9%; residual activity (DAPK2 (human)): 91.9%; residual activity (INSR (human)): 92.6%; residual activity (NEK6 (human)): 106%; residual activity (PDGFRB (human)): 94.5%
CCN(CC)CCNC(=O)c1c(C)[nH]c(/C=C2\C(=O)Nc3ccc(F)cc32)c1C	99.3	121	87.4	71.3	24.7	92.5	106	72.1	72.8	7.74	84	25.1	21.7	47.3	26.3	17.5	16.3	64.1	89.5	7.13	residual activity (PRKACG (human)): 109%; residual activity (TEK (human)): 88.6%; residual activity (MAP3K5 (human)): 100%; residual activity (TLK2 (human)): 63.3%; residual activity (LRRK2 (human)): 3.34%; residual activity (HIPK2 (human)): 41.3%; residual activity (TGFBR1 (human)): 101%; residual activity (MELK (human)): 10.4%; residual activity (PKN1 (human)): 71.4%; residual activity (EPHA6 (human)): 29.5%; residual activity (NEK6 (human)): 89%; residual activity (PDGFRB (human)): 17.6%
O=C(Nc1cccc(Nc2nccc(Nc3cccc(C(F)(F)F)c3)n2)c1)C1CC1	91.3	111	94.1	98.7	108	101	104	105	80.8	93.6	105	108	89.9	104	84.3	89.5	105	66.5	100	107	residual activity (KDR (human)): 91.6%; residual activity (PAK3 (human)): 98.9%; residual activity (CSNK1G2 (human)): 101%; residual activity (CDK2 CCNA2 (human)): 98.2%; residual activity (TEK (human)): 101%; residual activity (MAP3K5 (human)): 111%; residual activity (FES (human)): 94.3%; residual activity (MAPK3 (human)): 98.2%; residual activity (LRRK2 (human)): 93.7%; residual activity (HIPK2 (human)): 103%; residual activity (TGFBR1 (human)): 102%; residual activity (MELK (human)): 101%; residual activity (PKN1 (human)): 93.3%; residual activity (CDK2 CCNE1 (human)): 85.1%; residual activity (DAPK2 (human)): 120%; residual activity (INSR (human)): 89.8%; residual activity (NEK6 (human)): 103%; residual activity (PDGFRB (human)): 101%
CCOC(=O)c1c(C)[nH]c(/C=C2\C(=O)Nc3ccccc32)c1C	87.4	99.8	85.1	97.3	99.6	82.4	96.7	94.3	89.1	74.7	96.3	97.6	93.8	94.5	94.3	87.6	80.1	92.7	85.7	70.5	residual activity (PRKACG (human)): 88.4%; residual activity (KDR (human)): 93.2%; residual activity (PAK3 (human)): 99.1%; residual activity (CSNK1G2 (human)): 84.8%; residual activity (CDK2 CCNA2 (human)): 94.5%; residual activity (FES (human)): 99.3%; residual activity (TLK2 (human)): 96.5%; residual activity (MAPK3 (human)): 101%; residual activity (LRRK2 (human)): 28.6%; residual activity (TGFBR1 (human)): 99.7%; residual activity (MELK (human)): 87.4%; residual activity (PKN1 (human)): 89.6%; residual activity (CDK2 CCNE1 (human)): 95.6%; residual activity (DAPK2 (human)): 96.3%; residual activity (EPHA6 (human)): 80%; residual activity (INSR (human)): 90.6%; residual activity (NEK6 (human)): 98.1%; residual activity (PDGFRB (human)): 69.1%
CC[n+]1c(/C=C/N(C)c2ccccc2)n(-c2ccccc2)c2ccc(-c3nc4ccccc4s3)cc21	97.4	103	81.1	99.5	110	84.1	100	99.1	91.3	95.8	99.4	103	101	105	95.5	96	90.9	98	102	105	residual activity (KDR (human)): 93.9%; residual activity (PAK3 (human)): 109%; residual activity (CSNK1G2 (human)): 101%; residual activity (CDK2 CCNA2 (human)): 100%; residual activity (TEK (human)): 96%; residual activity (MAP3K5 (human)): 100%; residual activity (FES (human)): 101%; residual activity (MAPK3 (human)): 112%; residual activity (LRRK2 (human)): 95.5%; residual activity (HIPK2 (human)): 103%; residual activity (TGFBR1 (human)): 102%; residual activity (MELK (human)): 93.4%; residual activity (PKN1 (human)): 85.7%; residual activity (CDK2 CCNE1 (human)): 92.9%; residual activity (DAPK2 (human)): 94.3%; residual activity (INSR (human)): 94%; residual activity (NEK6 (human)): 96.1%; residual activity (PDGFRB (human)): 102%

Source: the kinase profiling compilation of Christmann-Franck et al. (2016)
